Data from patent US9481654B2, “Compositions and methods for inhibition of the JAK pathway” (Rigel Pharmaceuticals, Inc., priority 2006, dated 2016).
pIC50: −log10 of the molar value. Counter-ions that a name gives are not always drawn.

Tested on: IL-4 stimulated CD23 upregulation in human Ramos B cells (JAK-1/JAK-3, Stat-6)
Assay: Assay for Ramos B-Cell Line Stimulated with IL-4 (CD23 upregulation, FACS)
Type: cell-based
Conditions: Table III Example 3
Description: One means of assaying for such inhibition is detection of the effect of the 2,4-pyrimidinediamine compounds on the upregulation of downstream gene products. In the Ramos/IL4 assay, B-cells are stimulated with the cytokine Interleukin-4 (IL-4) leading to the activation of the JAK/Stat pathway through phosphorylation of the JAK family kinases, JAK1 and JAK3, which in turn phosphorylate and activate the transcription factor Stat-6. […] To study the effect of inhibitors (e.g., the 2,4-substituted pyrimindinediamine compounds described herein) on the JAK1 and JAK3 kinases, human Ramos B cells are stimulated with human IL-4. 20 to 24 hours post stimulation, cells are stained for upregulation of CD23 and analyzed using flow cytometry (FACS).
B-cells stimulated with cytokine Interleukin-4 (IL-4) activate the JAK/Stat pathway through phosphorylation of the JAK family kinases, JAK-1 and JAK-3, which in turn phosphorylate and activate the transcription factor Stat-6. […] To study the effect of inhibitors on the JAK family kinases, human Ramos B cells are stimulated with human IL-4.
Cells were maintained at a density of 3.5×10^5. The day before the experiment, Ramos B-cells were diluted to 3.5×10^5 cells/mL to ensure that they were in a logarithmic growth phase.
Cells were spun down and suspended in RPMI with 5% serum. 5×10^4 cells were used per point in a 96-well tissue culture plate. Cells were pre-incubated with compound or DMSO (Sigma-Aldrich, St. Louis, Mo., Cat No. D2650) vehicle control for 1 hour in a 37° C. incubator. Cells were then stimulated with IL-4 (Peprotech Inc., Rocky Hill, N.J., Cat No. 200-04) for a final concentration of 50 units/mL for 20-24 hours. […] Detection was performed using a BD LSR I System Flow Cytometer, purchased from Becton Dickinson Biosciences of San Jose, Calif.

Row | Compound | pIC50
1 | Cc1cnc(Nc2cccc(S(=O)(=O)NC(=O)CNC(=O)OCc3ccccc3)c2)nc1Nc1cccc(CNS(=O)(=O)C2CC2)c1 [Compound I-142, N2-{3-N-[2-(benzoxycarbonylamino)-1-oxoethyl]aminosulfonyl}phenyl-N4-(3-cyclopropylsulfonylaminomethyl)phenyl-5-methyl-2,4-pyrimidinediamine] | 5.25
2 | Cc1cnc(Nc2cccc(S(=O)(=O)NC(=O)[C@@H](NC(=O)OCc3ccccc3)C(C)C)c2)nc1Nc1cccc(CNS(=O)(=O)C2CC2)c1 [Compound I-144, N2-[3-N-(Cbz-L-Val)aminosulfonyl]phenyl-N4-(3-cyclopropylsulfonylaminomethyl)phenyl-5-methyl-2,4-pyrimidinediamine] | 5.11
3 | Cc1cnc(Nc2cccc(S(=O)(=O)NC3(C(=O)O)CCCC3)c2)nc1Nc1cccc(CNS(=O)(=O)C2CC2)c1 [Compound I-145, N2-[3-N-(cycloleucine)aminosulfonyl]phenyl-N4-(3-cyclopropylsulfonylaminomethyl)phenyl-5-methyl-2,4-pyrimidinediamine hydrogen chloride salt] | 5.07
4 | Cc1cnc(Nc2cccc(S(=O)(=O)N[C@H](C(=O)O)C(C)C)c2)nc1Nc1cccc(CNS(=O)(=O)C2CC2)c1 [Compound I-146, N2-[3-N-(L-Val)aminosulfonyl]phenyl-N4-(3-cyclopropylsulfonylaminomethyl)phenyl-5-methyl-2,4-pyrimidinediamine hydrogen chloride salt] | 4.91
5 | Cc1cnc(Nc2cccc(S(=O)(=O)NC(=O)C3(NC(=O)OC(C)(C)C)CCCC3)c2)nc1Nc1cccc(CNS(=O)(=O)C2CC2)c1 [Compound I-148, N2-[3-N-(Boc-cycloleucine)aminosulfonyl]phenyl-N4-(3-cyclopropylsulfonylaminomethyl)phenyl-5-methyl-2,4-pyrimidinediamine] | 4.79
6 | Cc1cnc(Nc2cccc(S(=O)(=O)Nc3cccnc3)c2)nc1Nc1ccc(CNS(=O)(=O)C2CC2)cc1 [Compound I-174, N4-(4-cyclopropylsulfonylaminomethyl)phenyl-5-methyl-N2-[3-(3-pyridyl)aminosulfonyl]phenyl-2,4-pyrimidinediamine] | 5.95
7 | CC(=O)NS(=O)(=O)c1cccc(Nc2ncc(C)c(Nc3cccc(CN(C(C)=O)S(=O)(=O)C4CC4)c3)n2)c1 [Compound I-193, N2-(3-acetamidosulfonyl)phenyl-N4-[3-(N-acetyl-N-cyclopropylsulfonyl)aminomethyl]phenyl-5-methyl-2,4-pyrimidinediamine] | 5.72
8 | CC(=O)NS(=O)(=O)c1ccc(Nc2ncc(C)c(Nc3ccc(CN(C(C)=O)S(=O)(=O)C4CC4)cc3)n2)cc1 [Compound I-194, N2-(4-acetamidosulfonyl)phenyl-N4-[4-(N-acetyl-N-cyclopropylsulfonyl)aminomethyl]phenyl-5-methyl-2,4-pyrimidinediamine] | 5.78
9 | Cc1cnc(Nc2cccc(S(=O)(=O)NC(=O)C(C)C)c2)nc1Nc1cccc(CN(C(=O)C(C)C)S(=O)(=O)C2CC2)c1 [Compound I-198, N4-[3-(N-cyclopropylsulfonyl-N-isobutyryl)aminomethyl]phenyl-N2-(3-isobutyrylaminosulfonyl)phenyl-5-methyl-2,4-pyrimidinediamine] | 5.69
10 | Cc1cnc(Nc2ccc(S(=O)(=O)NC(=O)C(C)C)cc2)nc1Nc1ccc(CN(C(=O)C(C)C)S(=O)(=O)C2CC2)cc1 [Compound I-199, N4-[4-(N-cyclopropylsulfonyl-N-isobutyryl)aminomethyl]phenyl-N2-(4-isobutyrylaminosulfonyl)phenyl-5-methyl-2,4-pyrimidinediamine] | 5.90
11 | CCCC(=O)NS(=O)(=O)c1cccc(Nc2ncc(C)c(Nc3cccc(CN(C(=O)CCC)S(=O)(=O)C4CC4)c3)n2)c1 [Compound I-203, N2-(3-butyrylaminosulfonyl)phenyl-N4-[3-(N-butyryl-N-cyclopropylsulfonyl)aminomethyl]phenyl-5-methyl-2,4-pyrimidinediamine] | 5.52
12 | CCCC(=O)NS(=O)(=O)c1ccc(Nc2ncc(C)c(Nc3ccc(CN(C(=O)CCC)S(=O)(=O)C4CC4)cc3)n2)cc1 [Compound I-204, N2-(4-butyrylaminosulfonyl)phenyl-N4-[4-(N-butyryl-N-cyclopropylsulfonyl)aminomethyl]phenyl-5-methyl-2,4-pyrimidinediamine] | 5.98
13 | CCCCCC(=O)NS(=O)(=O)c1cccc(Nc2ncc(C)c(Nc3cccc(CN(C(=O)CCCCC)S(=O)(=O)C4CC4)c3)n2)c1 [Compound I-218, N4-[3-(N-cyclopropylsulfonyl-N-hexanoyl)aminomethyl]phenyl-N2-(3-hexanoylaminosulfonyl)phenyl-5-methyl-2,4-pyrimidinediamine] | 5.42
14 | CCCCC(=O)NS(=O)(=O)c1cccc(Nc2ncc(C)c(Nc3cccc(CN(C(=O)CCCC)S(=O)(=O)C4CC4)c3)n2)c1 [Compound I-220, N4-[3-(N-cyclopropylsulfonyl-N-valeryl)aminomethyl]phenyl-5-methyl-N2-(3-valerylaminosulfonyl)phenyl-2,4-pyrimidinediamine] | 5.70
15 | CCCC(=O)NS(=O)(=O)c1cccc(Nc2ncc(C)c(Nc3cccc(CN(C(=O)CCC)S(=O)(=O)C4CC4)c3)n2)c1 [Compound I-222, N2-(3-butyrylaminosulfonyl)phenyl-N4-[3-(N-butyryl-N-cyclopropylsulfonyl)aminomethyl]phenyl-5-methyl-2,4-pyrimidinediamine Choline salt] | 5.52
16 | CCCC(=O)NS(=O)(=O)c1cccc(Nc2ncc(C)c(Nc3cccc(CNS(=O)(=O)C4CC4)c3)n2)c1 [Compound I-223, N2-(3-butyrylaminosulfonyl)phenyl-N4-(3-cyclopropylsulfonylaminomethyl)phenyl-5-methyl-2,4-pyrimidinediamine] | 5.43

Same assay, conditions: Table III Example 3, sodium salt

Row | Compound | pIC50
17 | Cc1cnc(Nc2cccc(S(=O)(=O)NC(=O)CNC(=O)OCc3ccccc3)c2)nc1Nc1cccc(CNS(=O)(=O)C2CC2)c1 [Compound I-143, N2-{3-N-[2-(benzoxycarbonylamino)-1-oxoethyl]aminosulfonyl}phenyl-N4-(3-cyclopropylsulfonylaminomethyl)phenyl-5-methyl-2,4-pyrimidinediamine sodium salt] | 5.14
18 | CC(=O)NS(=O)(=O)c1cccc(Nc2ncc(C)c(Nc3cccc(CN(C(C)=O)S(=O)(=O)C4CC4)c3)n2)c1 [Compound I-196, N2-(3-acetamidosulfonyl)phenyl-N4-[3-(N-acetyl-N-cyclopropylsulfonyl)aminomethyl]phenyl-5-methyl-2,4-pyrimidinediamine sodium salt] | 5.69
19 | CC(=O)NS(=O)(=O)c1ccc(Nc2ncc(C)c(Nc3ccc(CN(C(C)=O)S(=O)(=O)C4CC4)cc3)n2)cc1 [Compound I-197, N2-(4-acetamidosulfonyl)phenyl-N4-[4-(N-acetyl-N-cyclopropylsulfonyl)aminomethyl]phenyl-5-methyl-2,4-pyrimidinediamine sodium salt] | 5.81
20 | Cc1cnc(Nc2cccc(S(=O)(=O)NC(=O)C(C)C)c2)nc1Nc1cccc(CN(C(=O)C(C)C)S(=O)(=O)C2CC2)c1 [Compound I-200, N4-[3-(N-cyclopropylsulfonyl-N-isobutyryl)aminomethyl]phenyl-N2-(3-isobutyrylaminosulfonyl)phenyl-5-methyl-2,4-pyrimidinediamine sodium salt] | 5.64
21 | Cc1cnc(Nc2ccc(S(=O)(=O)NC(=O)C(C)C)cc2)nc1Nc1ccc(CN(C(=O)C(C)C)S(=O)(=O)C2CC2)cc1 [Compound I-201, N4-[4-(N-cyclopropylsulfonyl-N-isobutyryl)aminomethyl]phenyl-N2-(4-isobutyrylaminosulfonyl)phenyl-5-methyl-2,4-pyrimidinediamine sodium salt] | 5.92
22 | CCCC(=O)NS(=O)(=O)c1cccc(Nc2ncc(C)c(Nc3cccc(CN(C(=O)CCC)S(=O)(=O)C4CC4)c3)n2)c1 [Compound I-205, N2-(3-butyrylaminosulfonyl)phenyl-N4-[3-(N-butyryl-N-cyclopropylsulfonyl)aminomethyl]phenyl-5-methyl-2,4-pyrimidinediamine sodium salt] | 5.46
23 | CCCC(=O)NS(=O)(=O)c1ccc(Nc2ncc(C)c(Nc3ccc(CN(C(=O)CCC)S(=O)(=O)C4CC4)cc3)n2)cc1 [Compound I-206, N2-(4-butyrylaminosulfonyl)phenyl-N4-[4-(N-butyryl-N-cyclopropylsulfonyl)aminomethyl]phenyl-5-methyl-2,4-pyrimidinediamine sodium salt] | 6.02
24 | CCCCCC(=O)NS(=O)(=O)c1cccc(Nc2ncc(C)c(Nc3cccc(CN(C(=O)CCCCC)S(=O)(=O)C4CC4)c3)n2)c1 [Compound I-219, N4-[3-(N-cyclopropylsulfonyl-N-hexanoyl)aminomethyl]phenyl-N2-(3-hexanoylaminosulfonyl)phenyl-5-methyl-2,4-pyrimidinediamine sodium salt] | 5.58
